Reference: patent US20080160000A1 (priority 2006, published 2008)
Like-named read-outs stand apart in the source and are kept apart here.

Tests used:
clostridium perfringens = type: in vivo, chickens; conditions: for Body weight, compared-group comparison / Body weight gain, compared-group comparison / Feed intake, compared-group comparison / Feed conversion ratio, compared-group comparison / Number of clostridium perfringens, compared-group comparison: index, Fifteenth Group = 100
Eimeria maxima = test: Example 2: chickens infected with Eimeria maxima, feed test (growth, OPG); type: in vivo
Protocol: Three groups (20 chickens/group) of tested chickens (type of chickens: chunky, neonatal chick, male) were prepared.
The test chickens of the eighth to tenth groups are bred for 28 days by freely feeding the feeds (Table 6) obtained by adding the ingredients to the basal feed (100 mass %) shown in Table 1. The test chickens of all the groups were infected with oocysts of coccidial protozoa Eimeria maxima in a ratio of 1.5×10^4 oocysts/chicken in an oral administration manner on the twenty-first day after the breeding. On each sixth to eighth day after the infection, the feces of the groups were sampled, and the number of oocysts per gram of the feces (OPG) was measured (as a three-day average value).

Eimeria acervulina = test: Example 1: chickens infected with Eimeria acervulina, feed test (growth, lesion, OPG, ACI); type: in vivo
Protocol: Seven groups (30 chickens/group) of test chickens (type of chickens: chunky, one week of age, male) were prepared.
The test chickens of the first to seventh groups are bred for 12 days by freely feeding the feeds (Table 4) obtained by adding the ingredients to the basal feed (100 mass %) shown in Table 1. The test chickens of the second to seventh groups excluding the first group were infected with oocysts of coccidial protozoa Eimeria acervulina in a ratio of 5.0×10^4 oocysts/chicken in an oral administration manner on the seventh day after the start of the breeding. Next, after the breeding was finished, the test chickens of the groups were dissected, and degrees of lesions in the duodenums were evaluated according to the following evaluation criteria. In addition, on the dissection day, feces of the groups were sampled, and the number of oocysts per gram of the feces (OPG) was measured. OPG scores were determined by OPG values according to the evaluation criteria as follow.

enramycin [Sixteenth Group]
Body weight gain (clostridium perfringens; 1 week): 96 g/chicken | Feed intake (clostridium perfringens; 1 week): 118 g/chicken | Body weight (clostridium perfringens; 1 week of age, basal feed with 30% rye): 136 g/chicken | Body weight, compared-group comparison (clostridium perfringens; 1 week of age): 114 | Body weight gain, compared-group comparison (clostridium perfringens; 1 week): 121 | Feed intake, compared-group comparison (clostridium perfringens; 1 week): 107 | Body weight gain (clostridium perfringens; 2 weeks): 220 g/chicken | Feed intake (clostridium perfringens; 2 weeks): 323 g/chicken | Body weight (clostridium perfringens; 2 weeks of age): 356 g/chicken | Body weight, compared-group comparison (clostridium perfringens; 2 weeks of age): 124 | Body weight gain, compared-group comparison (clostridium perfringens; 2 weeks): 132 | Feed intake, compared-group comparison (clostridium perfringens; 2 weeks): 140 | Body weight gain (clostridium perfringens; 3 weeks): 345 g/chicken | Feed intake (clostridium perfringens; 3 weeks): 510 g/chicken | Body weight (clostridium perfringens; 3 weeks of age): 700 g/chicken | Body weight, compared-group comparison (clostridium perfringens; 3 weeks of age): 130 | Body weight gain, compared-group comparison (clostridium perfringens; 3 weeks): 135 | Feed intake, compared-group comparison (clostridium perfringens; 3 weeks): 124 | Feed conversion ratio (clostridium perfringens; First week): 1.23 | Number of clostridium perfringens (clostridium perfringens; First week, cloacal swab): 2.0 LogCFU/g | Feed conversion ratio, compared-group comparison (clostridium perfringens; First week): 89 | Number of clostridium perfringens, compared-group comparison (clostridium perfringens; First week): 34 | Feed conversion ratio (clostridium perfringens; Second week): 1.47 | Number of clostridium perfringens (clostridium perfringens; Second week, cloacal swab): 2.0 LogCFU/g | Feed conversion ratio, compared-group comparison (clostridium perfringens; Second week): 106 | Number of clostridium perfringens, compared-group comparison (clostridium perfringens; Second week): 47 | Feed conversion ratio (clostridium perfringens; Third week): 1.48 | Number of clostridium perfringens (clostridium perfringens; Third week, cloacal swab): 2.0 LogCFU/g | Feed conversion ratio, compared-group comparison (clostridium perfringens; Third week): 91 | Number of clostridium perfringens, compared-group comparison (clostridium perfringens; Third week): 41 | Feed conversion ratio (clostridium perfringens; Total): 1.44 | Body weight gain (clostridium perfringens; Total (21 days)): 660 g/chicken | Feed intake (clostridium perfringens; Total (21 days)): 950 g/chicken | Number of clostridium perfringens (clostridium perfringens; Total (no unit printed in this row; weekly rows in LogCFU/g)): 2.0 | Body weight gain, compared-group comparison (clostridium perfringens; Total): 132 | Feed conversion ratio, compared-group comparison (clostridium perfringens; Total): 96 | Feed intake, compared-group comparison (clostridium perfringens; Total): 126 | Number of clostridium perfringens, compared-group comparison (clostridium perfringens; Total): 40

CC[C@@H](C(=O)[C@@H](C)[C@@H](O)[C@H](C)[C@@H]1O[C@@H]([C@@H](CC)C(=O)O)CC[C@@H]1C)[C@H]1O[C@]2(C=C[C@@H](O)[C@]3(CC[C@@](C)([C@H]4CC[C@](O)(CC)[C@H](C)O4)O3)O2)[C@H](C)C[C@@H]1C [Third group, Salinomycine]
Body weight gain (Eimeria maxima; 28 days): 1018 g/chicken | Feed conversion ratio (Eimeria maxima; 28 days): 1.50 | Feed intake (Eimeria maxima; 28 days): 1525 g/chicken | Final body weight (Eimeria maxima; 28 days breeding, infected day 21 with 1.5×10^4 oocysts/chicken): 1054 g/chicken | Maxima OPG (Eimeria maxima; average on the 6 to 8 days after infection): 3.1 10,000 oocysts/g of feces | Growth ratio (Eimeria maxima; in vivo): 100(100) % | Final body weight, compared-group comparison (Eimeria maxima; index, Eighth Group (basal feed) = 100): 117 | Body weight gain, compared-group comparison (Eimeria maxima; index, Eighth Group = 100): 117 | Feed conversion ratio, compared-group comparison (Eimeria maxima; index, Eighth Group = 100): 94 | Feed intake, compared-group comparison (Eimeria maxima; index, Eighth Group = 100): 110 | Growth ratio, compared-group comparison (Eimeria maxima; index, Eighth Group = 100): 100(100) | Maxima OPG, compared-group comparison (Eimeria maxima; index, Eighth Group = 100): 18 | Average OPG score in feces D (Eimeria acervulina; 0 to 40 points from OPG values per Table 3, average of three tested bodies in each group): 33.3 | ACI (anticoccidial indces) (Eimeria acervulina; ACI = (A + B) − (10C + D)): 126 | Relative ratio weight gain/initial weight (compared with First group) A (Eimeria acervulina; First group (non-infected basal feed) = 100): 95.0% | Average final body weight (Eimeria acervulina; after 12 days breeding, infected on day 7 with 5.0×10^4 oocysts/chicken): 643 g | Feed conversion ratio (Eimeria acervulina; in vivo): 1.32 | Feed intake (Eimeria acervulina; in vivo): 318 g/chicken | Survival ratio B (Eimeria acervulina; in vivo): 100.0% | Weight gain/initial weight ratio (Eimeria acervulina; in vivo): 60.1% | Body weight gain (Eimeria acervulina; initial to final weight): 242 g/chicken | Average lesion score C (Eimeria acervulina; lesion in duodenum, 0 to 4 points per Table 2): 3.6
